These are literature values, as cited in patent US8440702B2, “1,3-oxazolidin -2-one derivatives useful as CETP inhibitors” (Merck Sharp & Dohme Corp., priority 2005, dated 2013).

The conditions of the data set: clinical trials terminated.

Consider `CCOC(=O)N1c2ccc(C(F)(F)F)cc2[C@@H](N(Cc2cc(C(F)(F)F)cc(C(F)(F)F)c2)C(=O)OC)C[C@H]1CC` [torcetrapib], for which the “mortality in patients using the drug during outcomes studies” value was “increased mortality”.
